Results reported in patent US20200352889A1, “CYSTATHIONINE COMPOSITIONS AND METHODS OF TREATMENT FOR HEALTH CONDITIONS” (THE REGENTS OF THE UNIVERSITY OF COLORADO, A BODY CORPORATE, priority 2011, published 2020).

System: a23 cells
Assay: Tunicamycin-induced cell death, LDH release, transsulfuration negative a23 cells
Format: cell-based, Chinese hamster
Details: CBS and CGL negative, p=0.7301
From the text: However, examination of a direct effect of exogenously added cystathionine is not currently possible in a whole animal model because of complications with the compounds solubility and rapid kinetics of its excretion. In order to investigate the direct effects of cystathionine against ER stress-induced cell death, the cytotoxicity of tunicamycin in the human embryonic kidney cell line 293AD and the human hepatoma cell line HepG2 in the presence and absence of both PPG and exogenously added cystathionine was examined. Preliminary experiments confirmed that both of these cell lines express both CBS and CGL (data not shown). In order to investigate the possible protective effects of cystathionine in the absence of transsulfuration, these experiments were repeated with the CBS and CGL negative Chinese hamster fibroblast line a23 (6).
Cells were seeded in triplicate at ˜75% confluence and pre-treated with either PPG) (5 mM), Cystathionine (1 mM) or with just complete media (DMEM, 10% FBS) as a control. […] To further evaluate a role for cystathionine in resisting the induction of cell death by tunicamycin, cell lysis was quantified by assaying lactate dehydrogenase (LDH) release. The enzyme activity was determined spectrophotometrically and the amount of enzyme leak was expressed as a percentage of the LDH activity observed in untreated control cells. […]

SMILES: C#CCC(N)C(=O)O (racemic) [PPG, D,L-2-amino-4-pentynoic acid]
- cytoprotection against tunicamycin induced cell death: no significant cytoprotection
